Results reported in patent publication US20240092784A1, “CONDENSED HETEROCYCLIC COMPOUND” (NISSAN CHEMICAL CORPORATION, priority 2020, published 2024).

target: human SPR (Homo sapiens (Human), UniProt P35270); experiment: Evaluation Example 2: Measurement of human SPR inhibitory activity (seven concentrations, sepiapterin absorbance at 420 nm); type: biochemical; settings: Evaluation Example 2, seven concentrations 0.14 nM to 100 nM, 240 minutes at room temperature, read-out: IC50
How it was run: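 His-tagged full-length human SPR (1-261) was expressed in E. coli and the tag removed. Enzyme at 150 ng/mL in 100 mM Tris-HCl pH 7.5/0.01% BSA was mixed with compound (0.14–100 nM, seven points), 120 μM sepiapterin and 160 μM NADPH, both as added-solution concentrations. After 240 min at room temperature, remaining sepiapterin was read at 420 nm to give percent inhibition.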

Chain of human SPR (P35270 whole entry): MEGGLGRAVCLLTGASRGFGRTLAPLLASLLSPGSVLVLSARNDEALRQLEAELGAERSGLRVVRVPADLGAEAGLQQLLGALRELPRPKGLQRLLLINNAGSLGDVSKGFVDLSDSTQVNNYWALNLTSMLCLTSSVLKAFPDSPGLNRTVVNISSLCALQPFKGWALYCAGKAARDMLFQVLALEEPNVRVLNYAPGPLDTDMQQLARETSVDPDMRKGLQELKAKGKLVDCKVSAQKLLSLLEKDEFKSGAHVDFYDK

Question: For C/C(=C\c1cnn2c(O)c(C(=O)NC3CC3)c(=O)n(CC(C)C)c12)C(=O)N1CCN(C2CC(F)(F)C2)CC1 [Synthesis Example 255, (E)-N-Cyclopropyl-3-(3-(4-(3,3-difluorocyclobutyl)piperazin-1-yl)-2-methyl-3-oxoprop-1-en-1-yl)-7-hydroxy-4-isobutyl-5-oxo-4,5-dihydropyrazolo[1,5-a]pyrimidine-6-carboxamide], which IC50 is on record?
Answer: 1.02 nM

Question: How did the IC50 turn out when C/C(=C\c1cnn2c(O)c(C(=O)NC3CC3)c(=O)n(CC(C)C)c12)C(=O)N1CCC(F)(F)C1 [Synthesis Example 256, (E)-N-Cyclopropyl-3-(3-(3,3-difluoropyrrolidin-1-yl)-2-methyl-3-oxoprop-1-en-1-yl)-7-hydroxy-4-isobutyl-5-oxo-4,5-dihydropyrazolo[1,5-a]pyrimidine-6-carboxamide] was run?
Answer: 0.97 nM

Question: For C/C(=C\c1cnn2c(O)c(C(=O)NC3CC3)c(=O)n(CC(C)C)c12)C(=O)NC(C)C [Synthesis Example 257, (E)-N-Cyclopropyl-7-hydroxy-4-isobutyl-3-(3-(isopropylamino)-2-methyl-3-oxoprop-1-en-1-yl)-5-oxo-4,5-dihydropyrazolo[1,5-a]pyrimidine-6-carboxamide], which IC50 is on record?
Answer: 1.01 nM

Question: For C/C(=C\c1cnn2c(O)c(C(=O)NC3CC3)c(=O)n(CC(C)C)c12)C(=O)N(C)CC#N [Synthesis Example 258, (E)-3-(3-((Cyanomethyl)(methyl)amino)-2-methyl-3-oxoprop-1-en-1-yl)-N-cyclopropyl-7-hydroxy-4-isobutyl-5-oxo-4,5-dihydropyrazolo[1,5-a]pyrimidine-6-carboxamide], which IC50 is on record?
Answer: 0.74 nM

Question: For CC(C)Cn1c(=O)c(C(=O)NC2CC2)c(O)n2ncc(COc3cccnc3)c12 [Synthesis Example 259, N-Cyclopropyl-7-hydroxy-4-isobutyl-5-oxo-3-((pyridin-3-yloxy)methyl)-4,5-dihydropyrazolo[1,5-a]pyrimidine-6-carboxamide], which IC50 is on record?
Answer: 0.18 nM

Question: CC(C)Cn1c(=O)c(C(=O)NC2CC2)c(O)n2ncc(COc3ccccc3)c12 [Synthesis Example 260, N-Cyclopropyl-7-hydroxy-4-isobutyl-5-oxo-3-(phenoxymethyl)-4,5-dihydropyrazolo[1,5-a]pyrimidine-6-carboxamide] was tested. Which IC50 did it give?
Answer: 1.27 nM

Question: CC(C)Cn1c(=O)c(C(=O)NC2CC2)c(O)n2ncc(C#N)c12 [Synthesis Example 261, 3-Cyano-N-cyclopropyl-7-hydroxy-4-isobutyl-5-oxo-4,5-dihydropyrazolo[1,5-a]pyrimidine-6-carboxamide] was tested. Which IC50 did it give?
Answer: 2.27 nM

Question: For CC(C)Cn1c(=O)c(C(=O)NC2CC2)c(O)n2ncc(CNC(=O)C3CCOCC3)c12 [Synthesis Example 262, N-Cyclopropyl-7-hydroxy-4-isobutyl-5-oxo-3-((tetrahydro-2H-pyran-4-carboxamido)methyl)-4,5-dihydropyrazolo[1,5-a]pyrimidine-6-carboxamide], which IC50 is on record?
Answer: 1.01 nM

Question: CC(C)Cn1c(=O)c(C(=O)NC2CC2)c(O)n2ncc(CNC(=O)C3CCC(F)(F)CC3)c12 [Synthesis Example 263, N-Cyclopropyl-3-((4,4-difluorocyclohexane-1-carboxamido)methyl)-7-hydroxy-4-isobutyl-5-oxo-4,5-dihydropyrazolo[1,5-a]pyrimidine-6-carboxamide] was tested. Which IC50 did it give?
Answer: 1.22 nM

Question: CC(C)Cn1c(=O)c(C(=O)NC2CC2)c(O)n2ncc(CC(=O)N3CCOCC3)c12 [Synthesis Example 264, N-Cyclopropyl-7-hydroxy-4-isobutyl-3-(2-morpholino-2-oxoethyl)-5-oxo-4,5-dihydropyrazolo[1,5-a]pyrimidine-6-carboxamide] was tested. Which IC50 did it give?
Answer: 0.95 nM

Question: How did the IC50 turn out when CC(C)Cn1c(=O)c(C(=O)NC2CC2)c(O)n2ncc(/C=C/C(C)(C)O)c12 [Synthesis Example 265, (E)-N-Cyclopropyl-7-hydroxy-3-(3-hydroxy-3-methylbut-1-en-1-yl)-4-isobutyl-5-oxo-4,5-dihydropyrazolo[1,5-a]pyrimidine-6-carboxamide] was run?
Answer: 0.68 nM

Question: For CC(C)Cn1c(=O)c(C(=O)NC2CC2)c(O)n2ncc(/C=C/C3=NCC(C)(C)O3)c12 [Synthesis Example 266, (E)-N-Cyclopropyl-3-(2-(5,5-dimethyl-4,5-dihydrooxazol-2-yl)vinyl)-7-hydroxy-4-isobutyl-5-oxo-4,5-dihydropyrazolo[1,5-a]pyrimidine-6-carboxamide], which IC50 is on record?
Answer: 1.58 nM

Question: For CC(C)Cn1c(=O)c(C(=O)NC2CC2)c(O)n2ncc(/C=C/c3noc(=O)[nH]3)c12 [Synthesis Example 267, (E)-N-Cyclopropyl-7-hydroxy-4-isobutyl-5-oxo-3-(2-(5-oxo-4,5-dihydro-1,2,4-oxadiazol-3-yl)vinyl)-4,5-dihydropyrazolo[1,5-a]pyrimidine-6-carboxamide], which IC50 is on record?
Answer: 14.3 nM

Question: How did the IC50 turn out when Cc1nnc(/C=C/c2cnn3c(O)c(C(=O)NC4CC4)c(=O)n(CC(C)C)c23)s1 [Synthesis Example 268, (E)-N-Cyclopropyl-7-hydroxy-4-isobutyl-3-(2-(5-methyl-1,3,4-thiadiazol-2-yl)vinyl)-5-oxo-4,5-dihydropyrazolo[1,5-a]pyrimidine-6-carboxamide] was run?
Answer: 1.04 nM

Question: How did the IC50 turn out when Cc1nnc(/C=C/c2cnn3c(O)c(C(=O)NC4CC4)c(=O)n(CC(C)C)c23)o1 [Synthesis Example 269, (E)-N-Cyclopropyl-7-hydroxy-4-isobutyl-3-(2-(5-methyl-1,3,4-oxadiazol-2-yl)vinyl)-5-oxo-4,5-dihydropyrazolo[1,5-a]pyrimidine-6-carboxamide] was run?
Answer: 1.17 nM

Question: For COC(C)(C)Cn1c(=O)c(C(=O)NC2CC2)c(O)n2nc(Br)cc12 [Synthesis Example 270, 2-Bromo-N-cyclopropyl-7-hydroxy-4-(2-methoxy-2-methylpropyl)-5-oxo-4,5-dihydropyrazolo[1,5-a]pyrimidine-6-carboxamide], which IC50 is on record?
Answer: 1.16 nM

Question: With COC(C)(C)Cn1c(=O)c(C(=O)NC2CC2)c(O)n2nc(-c3cccnc3N)cc12 [Synthesis Example 271, 2-(2-Aminopyridin-3-yl)-N-cyclopropyl-7-hydroxy-4-(2-methoxy-2-methylpropyl)-5-oxo-4,5-dihydropyrazolo[1,5-a]pyrimidine-6-carboxamide] as the molecule, how does the IC50 read?
Answer: 1.08 nM

Question: For CC(C)(C)Cn1c(=O)c(C(=O)NCC(F)(F)F)c(O)n2nc(Br)cc12 [Synthesis Example 272, 2-Bromo-7-hydroxy-4-neopentyl-5-oxo-N-(2,2,2-trifluoroethyl)-4,5-dihydropyrazolo[1,5-a]pyrimidine-6-carboxamide], which IC50 is on record?
Answer: 3.78 nM

Question: CC(C)Cn1c(=O)c(C(=O)NCC(F)(F)F)c(O)n2nc(Br)cc12 [Synthesis Example 273, 2-Bromo-7-hydroxy-4-isobutyl-5-oxo-N-(2,2,2-trifluoroethyl)-4,5-dihydropyrazolo[1,5-a]pyrimidine-6-carboxamide] was tested. Which IC50 did it give?
Answer: 11.6 nM

Question: CC(C)(C)Cn1c(=O)c(C(=O)NC2CC2)c(O)n2nc(CN3CCCCC3)cc12 [Synthesis Example 274, N-Cyclopropyl-7-hydroxy-4-neopentyl-5-oxo-2-(piperidin-1-ylmethyl)-4,5-dihydropyrazolo[1,5-a]pyrimidine-6-carboxamide] was tested. Which IC50 did it give?
Answer: 9.46 nM

Question: For COC(C)(C)Cn1c(=O)c(C(=O)NC2CC2)c(O)n2nc(C(N)=O)cc12 [Synthesis Example 275, N6-Cyclopropyl-7-hydroxy-4-(2-methoxy-2-methylpropyl)-5-oxo-4,5-dihydropyrazolo[1,5-a]pyrimidine-2,6-dicarboxamide], which IC50 is on record?
Answer: 0.68 nM

Question: With NC(=O)c1cc2n(CC3CCC(F)(F)CC3)c(=O)c(C(=O)NC3CC3)c(O)n2n1 [Synthesis Example 276, N6-Cyclopropyl-4-((4,4-difluorocyclohexyl)methyl)-7-hydroxy-5-oxo-4,5-dihydropyrazolo[1,5-a]pyrimidine-2,6-dicarboxamide] as the molecule, how does the IC50 read?
Answer: 0.68 nM

Question: With CC(C)(Cn1c(=O)c(C(=O)NC2CC2)c(O)n2nc(C(N)=O)cc12)C(F)(F)F [Synthesis Example 277, N6-Cyclopropyl-7-hydroxy-5-oxo-4-(3,3,3-trifluoro-2,2-dimethylpropyl)-4,5-dihydropyrazolo[1,5-a]pyrimidine-2,6-dicarboxamide] as the molecule, how does the IC50 read?
Answer: 0.82 nM

Question: CC(C)(C)Cn1c(=O)c(C(=O)NC2CC2)c(O)n2nc(C(C)(C)O)cc12 [Synthesis Example 278, N-Cyclopropyl-7-hydroxy-2-(2-hydroxypropan-2-yl)-4-neopentyl-5-oxo-4,5-dihydropyrazolo[1,5-a]pyrimidine-6-carboxamide] was tested. Which IC50 did it give?
Answer: 1.87 nM

Question: Which IC50 does the source give for CC(C)(C)Cn1c(=O)c(C(=O)NC2CC2)c(O)n2nc(C#N)cc12 [Synthesis Example 279, 2-Cyano-N-cyclopropyl-7-hydroxy-4-neopentyl-5-oxo-4,5-dihydropyrazolo[1,5-a]pyrimidine-6-carboxamide] here?
Answer: 1.76 nM

Question: For COc1ncccc1-c1cc2n(CC(C)(C)C)c(=O)c(C(=O)NC3CC3)c(O)n2n1 [Synthesis Example 281, N-Cyclopropyl-7-hydroxy-2-(2-methoxypyridine-3-yl)-4-neopentyl-5-oxo-4,5-dihydropyrazolo[1,5-a]pyrimidine-6-carboxamide], which IC50 is on record?
Answer: 3.08 nM

Question: How did the IC50 turn out when COc1ccncc1-c1cc2n(CC(C)(C)C)c(=O)c(C(=O)NC3CC3)c(O)n2n1 [Synthesis Example 282, N-Cyclopropyl-7-hydroxy-2-(4-methoxypyridine-3-yl)-4-neopentyl-5-oxo-4,5-dihydropyrazolo[1,5-a]pyrimidine-6-carboxamide] was run?
Answer: 4.73 nM

Question: With CC(C)(C)Cn1c(=O)c(C(=O)NC2CC2)c(O)n2nc(-c3cccnc3F)cc12 [Synthesis Example 283, N-Cyclopropyl-2-(2-fluoropyridine-3-yl)-7-hydroxy-4-neopentyl-5-oxo-4,5-dihydropyrazolo[1,5-a]pyrimidine-6-carboxamide] as the molecule, how does the IC50 read?
Answer: 2.35 nM

Question: Which IC50 does the source give for CC(C)(C)Cn1c(=O)c(C(=O)NC2CC2)c(O)n2nc(-c3cccnc3C(F)(F)F)cc12 [Synthesis Example 284, N-Cyclopropyl-7-hydroxy-4-neopentyl-5-oxo-2-(2-(trifluoromethyl)pyridin-3-yl)-4,5-dihydropyrazolo[1,5-a]pyrimidine-6-carboxamide] here?
Answer: 3.93 nM
